pEC50, pIC50: −log10 of the molar value.
Key:
PD-1/PD-L1 = PD-1/PD-L1 (Homo sapiens, UniProt Q9NZQ7); assay: PD-1/PD-L1 biochemical protein-protein interaction assay (ALPHA); format: binding; details: 0.3 nM His tagged PD-L1, 2.5 nM biotinylated Fc-PD-1, 60 minutes at 25° C., read-out: IC50 PD-L1-PD-1 Alpha IC50-mono PD-L1-fcP-D1
Outline: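 IC50 values derive from four-parameter fits of ALPHA signal decrease. Assay: 0.3 nM His-tagged PD-L1 with 2.5 nM biotinylated Fc-PD-1, Hepes pH 7.4 with 0.005% Tween 20 and 0.01% BSA, 60 min at 25° C, then anti-His acceptor and streptavidin donor beads.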

PD-1/PD-L1 interaction = molecular target: T1, PD-1/PD-L1 interaction (Homo sapiens, UniProt Q9NZQ7); assay: PD-1/PD-L1 NFAT reporter co-culture assay; format: cell-based; details: Jurkat PD-1 NFAT-luciferase cells co-cultured with aAPC-PD-L1 CHO cells, 6 hrs at 37° C.; read-out: EC50 NFAT Luciferase
T1 construct: expressed in transfected cells; host or cells: CHO cells (aAPC-PD-L1) co-cultured with Jurkat cells overexpressing PD-1 and an NFAT-luciferase reporter
Outline: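 Restoration of TCR-driven NFAT luciferase signal: 6 h, 37 °C co-culture of PD-1 Jurkat reporter cells (pre-mixed with compound) on overnight-seeded PD-L1/anti-CD3 CHO monolayer. ONE-Glo luminescence; dose-response fitted to four-parameter equation for EC50.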

PD-L1 = molecular target: T2, PD-L1 (Homo sapiens, UniProt Q9NZQ7); assay: PD-L1/PD-L1 dimerization biochemical protein-protein interaction assay (ALPHA); format: binding; details: compound-induced PD-L1 dimerization, head prints '1 nM' (0.5 nM His-tagged PD-L1 and 0.5 nM FLAG-tagged PD-L1), read-out: AC50 PDL1 Dimer Alpha 1 nM
T2 construct: determine if they can specifically dimerize the extracellular domains of PD-L1
Outline: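 After 2 h at 25 °C with compound, His- and FLAG-tagged PD-L1 ECDs (each 0.5 nM final; 25 mM Hepes pH 7.4, 150 mM NaCl) were detected by sequential anti-His acceptor and anti-FLAG donor bead incubations. Dose-response curves fitted to four-parameter equation for AC50.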

T2 sequence (Q9NZQ7 19-238 limits assumed): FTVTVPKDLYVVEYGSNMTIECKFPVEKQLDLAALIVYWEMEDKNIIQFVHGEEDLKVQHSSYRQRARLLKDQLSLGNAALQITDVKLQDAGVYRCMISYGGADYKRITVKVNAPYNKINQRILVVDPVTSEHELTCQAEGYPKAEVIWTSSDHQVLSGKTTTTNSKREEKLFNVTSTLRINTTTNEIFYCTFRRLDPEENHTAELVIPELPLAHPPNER
T2 sequence (Q9NZQ7 19-238 limits assumed): as above
Sequence of PD-1/PD-L1 (Q9NZQ7 19-238 limits assumed): as above
T1 sequence (Q9NZQ7 19-290): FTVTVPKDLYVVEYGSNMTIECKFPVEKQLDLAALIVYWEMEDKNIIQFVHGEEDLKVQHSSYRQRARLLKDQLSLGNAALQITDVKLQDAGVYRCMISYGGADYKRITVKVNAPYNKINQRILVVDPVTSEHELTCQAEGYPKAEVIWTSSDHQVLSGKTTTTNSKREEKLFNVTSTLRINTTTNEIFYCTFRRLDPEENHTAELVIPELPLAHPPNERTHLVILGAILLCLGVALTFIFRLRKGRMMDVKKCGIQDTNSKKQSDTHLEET

Row | Structure (SMILES) | pIC50 (PD-1/PD-L1) | pEC50 (PD-1/PD-L1 interaction) | AC50 (PD-L1) [nM]
1 | Cc1c(COc2nc(OCc3cncc(C#N)c3)c(CN[C@@](C)(CO)C(=O)O)cc2Cl)cccc1-c1cccc(-c2ccc(OCCNCCO)cc2)c1C [Example 581] | 9.74 | 6.80 | 60.3
2 | Cc1c(COc2cc(OCc3cncc(C#N)c3)c(CN3CC[C@@H](O)C3)cc2Cl)cccc1-c1cccc(-c2ccc(CN3CC(CC(=O)O)C3)cc2)c1C [Example 582] | 8.88 | 6.83 | 347
3 | Cc1c(COc2cc(OCc3cncc(C#N)c3)c(CN[C@@H]3CCC[C@@H]3O)cc2Cl)cccc1-c1cccc(-c2ccc3c(c2)CCC3N2CC[C@H](CC(=O)O)C2)c1C (stereo partly drawn) [Example 584] | 9.91 | 6.83 | 38.6
4 | Cn1cc(CN2CC3(CNC(=O)C3)C2)c2ncc(-c3cccc(-c4cccc(-c5cnc6c(CN7CC8(CNC(=O)C8)C7)cn(C)c6n5)c4Cl)c3Cl)nc21 [Example 588] | 10.09 | 7.30 | 206
5 | COc1nc(-c2cccc(-c3cccc(COc4nc(OC)c(CNC[C@@H](O)CC(=O)O)cc4Cl)c3Cl)c2Cl)ccc1CNC[C@@H]1CCC(=O)N1 [Example 590] | 9.73 | 6.85 | 134
6 | COc1nc(O[C@H]2CCc3c(-c4cccc(-c5cc(C)c(CNC[C@@H]6CCC(=O)N6)c(OC)n5)c4Cl)cccc32)c(Cl)cc1CNC[C@@H]1CCC(=O)N1 [Example 591] | 10.19 | 7.70 | 22.7
7 | Cc1c(COc2cc(OCc3cncc(C#N)c3)c(CNC[C@@H](O)CC(=O)O)cc2Cl)cccc1-c1cccc(-c2nc3cc(CNC[C@@H](O)CC(=O)O)ccc3o2)c1C [Example 593] | 10.19 | 6.95 | 124
8 | Cc1c(COc2cc(OCc3cncc(C#N)c3)c(CNC[C@@H](O)CC(=O)O)cc2Cl)cccc1-c1cccc(-c2nc3ccc(CNC[C@@H](O)CC(=O)O)cn3n2)c1C [Example 595] | 10.19 | 7.19 | 77
9 | COc1nc(-c2csc(-c3cccc(-c4ccc(CNC[C@@H]5CCC(=O)N5)c(OC)n4)c3Cl)c2)ccc1CNC[C@@H]1CCC(=O)N1 [Example 597, (S)-5-((((6-(2-chloro-3-(4-(6-methoxy-5-(((((S)-5-oxopyrrolidin-2-yl)methyl)amino)methyl)pyridin-2-yl)thiophen-2-yl)phenyl)-2-methoxypyridin-3-yl)methyl)amino)methyl)pyrrolidin-2-one] | 8.90 | 6.64 | 310
10 | COc1nc(-c2cccc(-c3cccc(-c4ccc5c(CNC[C@H]6CCC(=O)N6)cn(C)c5c4)c3Cl)c2Cl)ccc1CNC[C@H]1CCC(=O)N1 [Example 605] | 8.98 | 6.89 | 352
11 | COc1nc(-c2cccc(-c3cccc(-c4ccc5cc(CN(C)C)[nH]c5c4)c3Cl)c2Cl)ccc1CNC[C@@H]1CCC(=O)N1 [Example 607] | 8.93 | 5.76 | 296
12 | COc1nc(-c2cccc(-c3cccc(-c4ccc5[nH]cc(CN(C)C)c5c4)c3Cl)c2Cl)ccc1CNC[C@@H]1CCC(=O)N1 [Example 608] | 8.76 | ≤ 4.30 | 214
13 | COc1nc(-c2cccc(-c3cccc(-c4ccc5c(c4)[C@H](O)C[C@@H]5N)c3Cl)c2Cl)ccc1CNC[C@@H]1CCC(=O)N1 [Example 611] | 9.32 | 6.65 | 408

Further compounds by rising pIC50 (PD-1/PD-L1), results first:

Row | pIC50 (PD-1/PD-L1) | pEC50 (PD-1/PD-L1 interaction) | AC50 (PD-L1) [nM] | Structure (SMILES)
14 | 8.21 | ≤ 4.30 | 558 | COc1nc(-c2cccc(-c3cccc(-c4ccc5[nH]c(CN(C)C)cc5c4)c3Cl)c2Cl)ccc1CNC[C@@H]1CCC(=O)N1 [Example 606]
15 | 8.28 | 6.13 | 1130 | COc1nc(-c2ccc(-c3cccc(-c4ccc(CNC[C@@H]5CCC(=O)N5)c(OC)n4)c3Cl)s2)ccc1CNC[C@@H]1CCC(=O)N1 [Example 601]
16 | 8.31 | 6.26 | 935 | COc1nc(-c2cccc(-c3cccc(-c4ccc5c(CNC[C@@H]6CCC(=O)N6)cccc5c4)c3Cl)c2Cl)ccc1CNC[C@@H]1CCC(=O)N1 [Example 604]
17 | 8.52 | 5.74 | 480 | COc1nc(-c2cccc(-c3cccc(-c4ccc5c(ccn5CCN(C)C)c4)c3Cl)c2Cl)ccc1CNC[C@@H]1CCC(=O)N1 [Example 598, (S)-5-((((6-(2,2′-dichloro-3′-(1-(2-(dimethylamino)ethyl)-1H-indol-5-yl)-[1,1′-biphenyl]-3-yl)-2-methoxypyridin-3-yl)methyl)amino)methyl)pyrrolidin-2-one]
18 | 9.13 | ≤ 4.30 | 105 | COc1nc(-c2cccc(-c3cccc(-c4ccc5c(CN(C)C)c[nH]c5c4)c3Cl)c2Cl)ccc1CNC[C@@H]1CCC(=O)N1 [Example 610]
19 | 9.17 | 6.77 | 415 | COc1nc(-c2cccc(-c3cccc(-c4cnn(CCN)c4)c3Cl)c2Cl)ccc1CNC[C@@H]1CCC(=O)N1 [Example 596, (S)-5-((((6-(3′-(1-(2-aminoethyl)-1H-pyrazol-4-yl)-2,2′-dichloro-[1,1′-biphenyl]-3-yl)-2-methoxypyridin-3-yl)methyl)amino)methyl)pyrrolidin-2-one]
20 | 9.41 | 6.62 | 261 | COc1nc(-c2cccc(-c3csc(-c4cnc(CNC[C@@H]5CCC(=O)N5)c(OC)n4)c3)c2Cl)ccc1CNC[C@@H]1CCC(=O)N1 [Example 600]
21 | 9.41 | 6.27 | 143 | COc1nc(-c2cccc(-c3cccc(-c4ccc5c(C[N+](C)(C)C)c[nH]c5c4)c3Cl)c2Cl)ccc1CNC[C@@H]1CCC(=O)N1 [Example 609]
22 | 9.53 | 6.74 | 38.3 | Cc1c(COc2cc(OCc3cncc(C#N)c3)c(CN[C@@H]3CCC[C@@H]3O)cc2Cl)cccc1-c1cccc(-c2ccc3c(c2)CCC3N2CC3(CC(C(=O)O)C3)C2)c1C (stereo partly drawn) [Example 583]
23 | 9.63 | 6.62 | 124 | COc1nc(-c2cccc(-c3cccc(-c4cnc5c(CNC[C@H]6CCC(=O)N6)cn(C)c5c4)c3Cl)c2Cl)ccc1CNC[C@H]1CCC(=O)N1 [Example 602]
24 | 9.67 | 6.70 | 231 | Cc1c(COc2cc(OCc3cncc(C#N)c3)c(CN[C@@](C)(CO)C(=O)O)cc2Cl)cccc1-c1cccc(-c2ccc(CNCCn3ccnn3)cc2)c1C [Example 580]
25 | 9.67 | ≤ 4.30 | 7930 | COc1nc(-c2cccc(-c3cccc(N4Cc5cc(CN6CC7(C6)CN(C(C)=O)C7)ccc5C4=O)c3Cl)c2Cl)ccc1CN1CC2(C1)CN(C(C)=O)C2 [Example 599, 5-((6-acetyl-2,6-diazaspiro[3.3]heptan-2-yl)methyl)-2-(3′-(5-((6-acetyl-2,6-diazaspiro[3.3]heptan-2-yl)methyl)-6-methoxypyridin-2-yl)-2,2′-dichloro-[1,1′-biphenyl]-3-yl)isoindolin-1-one]
26 | 9.69 | 6.80 | 235 | COc1nc(-c2cccc(-c3cccc(-c4ccc5c(CNC[C@@H]6CCC(=O)N6)cc(=O)n(C)c5c4)c3Cl)c2Cl)ccc1CNC[C@@H]1CCC(=O)N1 [Example 603]
27 | 9.77 | 7.49 | 24.3 | N#Cc1cc(C#N)cc(COc2nc(OCc3cccc(-c4cccc(-c5ccc(CNC[C@@H]6CCC(=O)N6)cc5)c4Cl)c3Cl)c(Cl)cc2CNC[C@@H](O)CC(=O)O)c1 [Example 576]
28 | 9.79 | 7.05 | 164 | Cn1cc(CN2CC3(CCC(=O)N3)C2)c2ncc(-c3cccc(-c4cccc(-c5cnc6c(CN7CC8(CCC(=O)N8)C7)cn(C)c6n5)c4Cl)c3Cl)nc21 [Example 589]
29 | 9.84 | 7.35 | 324 | CC(=O)N1CC2(CN(Cc3cn(C)c4nc(-c5cccc(-c6cccc(-c7cnc8c(CN9CC%10(C9)CN(C(C)=O)C%10)cn(C)c8n7)c6Cl)c5Cl)cnc34)C2)C1 [Example 587]
30 | 9.95 | 6.87 | 37.2 | CC(C)(NCc1cc(Cl)c(OCc2cccc(-c3cccc(-c4ccc(OCCNCCO)cc4)c3Cl)c2Cl)nc1OCc1cc(C#N)cc(C#N)c1)C(=O)O [Example 578]
31 | 10.02 | 6.76 | 107 | Cc1c(COc2cc(OCc3cncc(C#N)c3)c(CNC[C@@H](O)CC(=O)O)cc2Cl)cccc1-c1cccc(-c2nc3ccc(CNC[C@@H](O)CC(=O)O)cc3o2)c1C [Example 592]
32 | 10.19 | 7.80 | 9.73 | C[C@@](CO)(NCc1cc(Cl)c(OCc2cccc(-c3cccc(-c4ccc(CNC[C@@H]5CCC(=O)N5)cc4)c3Cl)c2Cl)nc1OCc1cc(C#N)cc(C#N)c1)C(=O)O [Example 577]
33 | 10.19 | 6.72 | 34.8 | Cc1c(COc2cc(OCc3cncc(C#N)c3)c(CN[C@@](C)(CO)C(=O)O)cc2Cl)cccc1-c1cccc(-c2ccc(CN3CC4(CCC(=O)N4)C3)cc2)c1C [Example 579]

— US12590062B2, “PD-1/PD-L1 inhibitors” (Gilead Sciences, Inc., priority 2017, dated 2026)
